The results in this text go back to ChEMBL document CHEMBL1201862, “PubChem BioAssay data set” (2004).

One may read the EC50 as the concentration giving half of the maximal effect. As a reminder, the AC50 is the midpoint of the concentration-response curve, whichever way the signal moves. What is called CC50 is the concentration at which the toxic effect on the cells reaches its halfway point.

Test [1] addresses T1, Heat shock factor protein 1 (Mus musculus, UniProt P38532).
T1 sequence (P38532 whole entry): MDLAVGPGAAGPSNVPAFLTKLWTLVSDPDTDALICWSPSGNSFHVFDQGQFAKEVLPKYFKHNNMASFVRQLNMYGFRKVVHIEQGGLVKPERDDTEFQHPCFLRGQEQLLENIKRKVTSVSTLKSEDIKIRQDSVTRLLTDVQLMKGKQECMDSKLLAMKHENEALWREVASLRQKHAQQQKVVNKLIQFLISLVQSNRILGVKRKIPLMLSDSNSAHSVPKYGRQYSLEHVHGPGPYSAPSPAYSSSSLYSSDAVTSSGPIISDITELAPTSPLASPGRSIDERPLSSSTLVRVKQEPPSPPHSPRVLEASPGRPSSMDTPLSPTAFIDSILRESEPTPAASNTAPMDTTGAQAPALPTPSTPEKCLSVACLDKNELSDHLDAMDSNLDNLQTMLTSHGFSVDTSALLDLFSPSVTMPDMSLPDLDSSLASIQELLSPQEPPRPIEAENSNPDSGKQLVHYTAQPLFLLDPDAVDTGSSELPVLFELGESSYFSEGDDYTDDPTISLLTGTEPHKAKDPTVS
Briefly: enhancement of HSF1-driven luciferase signal – cell-based, NIH3T3, luminescence, dose retest, confirmation (AID 435004).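 Further: stress induced by proteasome inhibitor MG132 added 30 min after compound; luciferase reporter driven by HSF1 response element in NIH3T3 cells; actives raise luminescence as potentiators of the MG132 stress response.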 Format: functional.

In test [2] the target is Cytochrome P450 3A4 (Homo sapiens, UniProt P08684).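 Further: CYP3A4 tested as one member of a cytochrome P450 panel screen.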
Cytochrome P450 3A4, sequence (P08684 whole entry): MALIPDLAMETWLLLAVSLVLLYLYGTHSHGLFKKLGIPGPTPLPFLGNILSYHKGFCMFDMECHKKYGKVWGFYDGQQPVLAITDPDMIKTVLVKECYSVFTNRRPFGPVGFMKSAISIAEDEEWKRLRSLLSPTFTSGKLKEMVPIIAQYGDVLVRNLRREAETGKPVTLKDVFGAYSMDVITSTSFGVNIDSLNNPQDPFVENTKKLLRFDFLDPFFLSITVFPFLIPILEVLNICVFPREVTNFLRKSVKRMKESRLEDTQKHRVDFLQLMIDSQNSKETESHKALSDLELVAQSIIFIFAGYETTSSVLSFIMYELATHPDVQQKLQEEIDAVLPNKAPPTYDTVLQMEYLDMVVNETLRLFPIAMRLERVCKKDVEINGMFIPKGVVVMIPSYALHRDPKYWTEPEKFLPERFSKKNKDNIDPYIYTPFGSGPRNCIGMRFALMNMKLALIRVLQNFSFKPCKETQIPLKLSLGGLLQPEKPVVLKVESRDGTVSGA
Test [3] deals with Cytochrome P450 2C19 (Homo sapiens, UniProt P33261). The test can be described thus: Cytochrome panel assay with activity outcomes. Panel member name: p450-cyp2c19 Compounds with AC50 equal or less than 10 uM are considered active. Type of test: functional. The settings on record: read-out: AC50.
Cytochrome P450 2C19, sequence (P33261 whole entry): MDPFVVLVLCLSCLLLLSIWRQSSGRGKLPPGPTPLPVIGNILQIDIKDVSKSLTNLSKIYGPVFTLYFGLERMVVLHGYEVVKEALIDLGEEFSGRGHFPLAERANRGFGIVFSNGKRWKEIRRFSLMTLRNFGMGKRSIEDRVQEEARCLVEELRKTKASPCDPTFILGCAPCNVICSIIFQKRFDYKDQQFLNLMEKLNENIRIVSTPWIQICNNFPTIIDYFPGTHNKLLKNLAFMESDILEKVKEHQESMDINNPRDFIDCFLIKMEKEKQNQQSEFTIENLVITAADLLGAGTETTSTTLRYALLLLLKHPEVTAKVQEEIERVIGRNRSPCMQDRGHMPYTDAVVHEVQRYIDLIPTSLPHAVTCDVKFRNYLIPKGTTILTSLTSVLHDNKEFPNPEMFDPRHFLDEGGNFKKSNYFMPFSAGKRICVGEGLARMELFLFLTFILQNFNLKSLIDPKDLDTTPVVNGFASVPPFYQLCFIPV
Test [4] has as its target Cytochrome P450 2D6 (Homo sapiens, UniProt P10635).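 Further: CYP2D6 member of a cytochrome P450 panel assay.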
Test [5] concerns Streptococcus. Briefly: GAS UMAA2166 growth inhibition – luminescence, BacTiterGlo, counter-screen for streptokinase expression inhibitor project, dose response (AID 1915).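 Further: potency for reduction of bacterial viability or growth.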 Format: functional, organism-based. (In general: A counterscreen serves to expose hits that act by an unwanted route or on another target.)
Test [6] deals with Streptococcus sp. 'group A'. The test can be described thus: Streptococcus pyogenes SK(-)GAS viability under kanamycin – luminescence, BacTiterGlo, confirmation, counter-screen for streptokinase expression inhibitor project, dose response (AID 1900). Format: functional, organism-based.
Test [7] in a line: viability of uninfected HEp-2 cells – cell-based, HTS, cytotoxicity control for RSV inhibitor project, dose response (AID 2410). The note with it: human respiratory syncytial virus. Format: functional.
Test [8] addresses T2, Streptokinase A (Streptococcus pyogenes serotype M1, UniProt P10520).
T2 sequence (P10520 whole entry): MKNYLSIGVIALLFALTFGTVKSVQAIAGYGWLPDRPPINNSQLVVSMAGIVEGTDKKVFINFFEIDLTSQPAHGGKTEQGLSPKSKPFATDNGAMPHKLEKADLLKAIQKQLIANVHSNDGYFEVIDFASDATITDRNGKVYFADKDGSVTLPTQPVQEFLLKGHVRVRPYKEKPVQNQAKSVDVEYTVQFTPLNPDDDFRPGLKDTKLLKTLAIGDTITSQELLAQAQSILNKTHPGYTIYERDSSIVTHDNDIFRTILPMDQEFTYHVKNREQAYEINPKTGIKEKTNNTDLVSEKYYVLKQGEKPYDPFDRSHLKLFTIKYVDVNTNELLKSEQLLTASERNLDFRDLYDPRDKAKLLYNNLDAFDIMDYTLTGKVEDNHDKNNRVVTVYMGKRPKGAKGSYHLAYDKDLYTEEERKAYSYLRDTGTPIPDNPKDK
The test can be described thus: viability-normalized secreted streptokinase activity reduction – plasminogen activation absorbance, OD405, dose response (AID 1914).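 Further: secreted streptokinase activity via plasminogen activation per viability signal from cell pellet.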 Type of test: functional, Streptococcus pyogenes M1 GAS.

The target in test [9] is Cytochrome P450 2C9 (Homo sapiens, UniProt P11712).
Cytochrome P450 2C9, sequence (P11712 whole entry): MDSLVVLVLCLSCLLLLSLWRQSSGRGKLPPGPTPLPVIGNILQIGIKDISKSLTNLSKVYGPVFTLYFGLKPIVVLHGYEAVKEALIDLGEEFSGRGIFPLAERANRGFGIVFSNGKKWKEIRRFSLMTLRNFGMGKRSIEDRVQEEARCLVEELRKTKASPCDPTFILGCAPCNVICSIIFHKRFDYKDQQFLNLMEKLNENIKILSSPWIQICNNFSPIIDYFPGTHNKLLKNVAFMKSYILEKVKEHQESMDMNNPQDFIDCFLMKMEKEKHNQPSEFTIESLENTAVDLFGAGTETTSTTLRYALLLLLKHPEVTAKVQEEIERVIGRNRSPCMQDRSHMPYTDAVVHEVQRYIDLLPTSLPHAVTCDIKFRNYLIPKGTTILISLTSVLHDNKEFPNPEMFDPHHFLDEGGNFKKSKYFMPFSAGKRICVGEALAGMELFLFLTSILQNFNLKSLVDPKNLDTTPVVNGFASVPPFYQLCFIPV

Active and inactive are the calls of the source.

Cytochrome P450 2D6, sequence (P10635 whole entry): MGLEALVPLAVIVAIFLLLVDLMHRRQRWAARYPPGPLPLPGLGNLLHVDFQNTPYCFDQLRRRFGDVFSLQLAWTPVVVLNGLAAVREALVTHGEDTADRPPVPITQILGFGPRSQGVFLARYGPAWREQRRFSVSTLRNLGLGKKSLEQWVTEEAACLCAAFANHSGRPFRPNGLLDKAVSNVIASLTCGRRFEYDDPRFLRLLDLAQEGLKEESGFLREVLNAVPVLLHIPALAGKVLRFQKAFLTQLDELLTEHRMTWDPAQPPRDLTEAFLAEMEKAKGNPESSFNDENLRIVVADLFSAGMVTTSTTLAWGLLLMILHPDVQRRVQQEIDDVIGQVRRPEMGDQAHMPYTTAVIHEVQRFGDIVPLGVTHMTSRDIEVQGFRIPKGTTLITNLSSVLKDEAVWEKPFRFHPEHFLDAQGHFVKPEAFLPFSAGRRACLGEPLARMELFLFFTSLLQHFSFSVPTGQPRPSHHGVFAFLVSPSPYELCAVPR

Regarding `Cc1ccc(S(=O)(=O)n2cnc3ccccc32)cc1[N+](=O)[O-]`, in [1], the EC50 was > 260 µM (inactive).

Turning to `CSc1nc(Sc2cccc(Cl)c2)c2ccccc2n1`, the AC50 in test [2] was 35.5 µM (inconclusive).

As to `N#Cc1cccc(-c2cncnc2-n2ccnc2)c1`, the AC50 in test [3] and in test [4] was 39.8 µM (inconclusive) in each case.

With `CCc1ccccc1NC(=O)COc1ccc2c(=O)c(Oc3cc(C)ccc3C)coc2c1`, the EC50 in test [1] was > 260 µM (inactive).

Regarding `N#C/C(=C(/O)CN1CCN(c2ccccc2F)CC1)c1nc(-c2ccccc2)cs1`, the EC50 is 86.1 µM (active) in test [5], 11.7 µM (active) in test [6] and > 150 µM (not active) in [8]. Moreover, the CC50 in test [7] is 5 µM (active).

Take `CN1CCN(c2ccnc(-c3ccoc3)n2)CC1`: in test [4], the AC50 was 39.8 µM (inconclusive).

As to `CN(C)CC(C)(C)CN1c2ccccc2Sc2ccccc21`, the figures for the AC50 in [3] and in test [2] were 2 µM (inconclusive) and 5.01 µM (inconclusive), respectively.

As for `Cc1n[nH]c(C)c1CCCOc1ccccc1`, the EC50 in [5], in test [6] and in test [8] was > 150 µM (not active) throughout.

In the case of `CN(C)Cc1cc(C(F)(F)F)ccc1C(O)(c1ccccc1)c1ccccc1`, in test [4], the AC50 was 3.16 µM (inconclusive).

`COc1ccccc1N1CCN(C(=O)c2ccc3c(=O)n(Cc4ccco4)c(=S)[nH]c3c2)CC1`: the EC50 in test [1] was > 260 µM (inactive).

On to `CC1=C(Nc2c(C)cc(O)cc2O)C(=O)C=c2oc3c(c21)C(C)=C(Nc1c(C)cc(O)cc1O)C(=O)C=3`, for which, in test [4], the AC50 was 2.51 µM (inconclusive).

Regarding `COc1cccc(-c2ccc3ncnc(N4CCN(C)CC4)c3c2)c1`, the AC50 is 31.6 µM (inconclusive) in [3] and 39.8 µM (inconclusive) in [4].

As for `Cc1ccc(-c2nc3ncccn3c2Nc2ccccc2C)o1`, the EC50 in [1] was > 260 µM (inactive).

Consider `CCc1ccccc1N=C(S)NC1CC2CCC(C1)N2Cc1ccco1` (configuration not stated), for which the AC50 in [4] was 14.1 µM (inconclusive); in test [2] it was 20 µM (inconclusive).

For `CCC/C=C(\CCC)C(NC(=O)c1ccc(C(F)(F)F)cc1)c1ccc(C(F)(F)F)cc1` (configuration not stated), the AC50 in [2] is 10 µM (inconclusive).

Take `CCNc1ncc2ncc(=O)n(Cc3cccs3)c2n1`: the AC50 is 20 µM (inconclusive) in test [3], 20 µM (inconclusive) in test [2] and 15.8 µM (inconclusive) in [9].

As for `Cc1ccc(S(=O)(=O)N[C@@H](CCc2ccccc2)CC(=O)C(C)(C)C)cc1`, the AC50 in test [4] was 3.16 µM (inconclusive).

`O=C(c1ccc(Cl)c(Cl)c1)c1cc(-c2ccccn2)c(N2CCOCC2)s1`: the AC50 in test [4] was 10 µM (inconclusive).

Regarding `Cn1c(-c2sc(=S)n(-c3ccccc3)c2N)nc2ccccc21`, the AC50 in test [4] is 1.26 µM (inconclusive).

With `COCCCNCCOc1ccc(C)cc1[N+](=O)[O-]`, the EC50 in test [1] was > 260 µM (inactive).

In the case of `CCOC(=O)C1=C(CN2CCc3ccccc32)NC(=O)NC1c1ccc(Cl)cc1` (configuration not stated), the EC50 in test [1] is > 260 µM (inactive).

Regarding `Cc1cccc(Oc2nc(-c3ccncc3)nc3ccccc23)c1`, the EC50 is 12.5 µM (active) in test [5], 10.9 µM (active) in test [6] and > 150 µM (not active) in test [8].

Turning to `COc1cc2c(cc1NC(=O)COC(=O)[C@@H](NS(=O)(=O)c1ccccc1)C(C)C)oc1ccccc12`, the EC50 in [1] is > 260 µM (inactive).

As to `CC(=O)c1ccc(NC(=O)CCCN2C(=O)/C(=C/C(C)=C/c3ccccc3)SC2=S)cc1`, in test [1], the EC50 is 106 µM (active).

For `CCS(=O)(=O)N1Cc2ccccc2CC1C(=O)Nc1nnc(SCc2ccc(F)cc2)s1` (configuration not stated), the concentration for a half-maximal effect (EC50) in [5] was 91.2 µM (active); in test [6], 8.48 µM (active); in test [8], > 150 µM (not active).

`Nc1nn2c(O)c3c(nc2c1N=Nc1ccc(Cl)cc1)CCCC3`: the EC50 in [5] is > 150 µM (not active); in test [6] it was 6.99 µM (active); in test [8] it was > 150 µM (not active).

Take `Cc1cccc(CN(C(S)=Nc2c(C)cccc2C)c2cccnc2)c1`: the EC50 in [1] was > 260 µM (inactive).

Consider `Oc1nc(CN2CC=C(c3ccccc3)CC2)nc2scc(-c3cccs3)c12`, for which the EC50 in test [5] was > 150 µM (not active); in test [6] it was 12.2 µM (active); in test [8], > 150 µM (not active).

For the compound `COC(=O)c1ccc(C(NC(=O)c2ccccc2)[C@]2(C)C[C@H]2C2CCCCC2)cc1` (some centres not stated), the AC50 in [2] is 6.31 µM (inconclusive).

Regarding `CC(=O)O[C@]12CC[N@+]3(C)CCCC[C@@H]3[C-]1Nc1ccccc12`, the AC50 in test [4] was 3.16 µM (inconclusive).

Take `COc1ccc(C2CC3=Nc4ncnn4C(c4ccccc4)C3=C(O)C2)cc1` (configuration not stated): in test [1], the EC50 was > 260 µM (inactive).

As for `Cn1cccc1C(=O)N1CCC2(CCCN(Cc3ccccc3)C2)CC1`, in [2], the AC50 is 31.6 µM (inconclusive).

Turning to `C/C(=N\NC(=S)NCc1ccccc1)c1cccc(Br)c1`, the concentration for a half-maximal effect (EC50) was > 150 µM (not active) in [5], 8.85 µM (active) in test [6] and > 150 µM (not active) in test [8].

As to `Clc1ccc(-c2nc(/C=N/N3CCOCC3)c3ccccn23)cc1`, the EC50 in [1] is > 260 µM (inactive).

On to `CC1(C)CC(=O)C/C(=N/NC(=O)CCCOc2ccc(Cl)cc2Cl)C1`, for which the EC50 in test [1] is > 260 µM (inactive).

Consider `CCOc1ccc(/C=N/NC(=S)NC2CC3CC2C2C=CCC32)cc1` (configuration not stated), for which the EC50 in [5] is 19.8 µM (active); in test [6], 14.4 µM (active); in test [8] it was > 150 µM (not active).

Regarding `O=C(N/N=C/c1c[nH]c2ccc(Br)cc12)c1ccn(Cc2ccc(Cl)cc2)n1`, the AC50 was 3.98 µM (inconclusive) in test [2] and 39.8 µM (inconclusive) in [9].

With `COc1ccc(C)cc1NC(=O)C/C(C)=N/NC(=O)Cc1cccc2ccccc12`, the EC50 in test [1] was > 260 µM (inactive).

In the case of `O=C(O)c1c(Br)c(Br)c(Br)c(Br)c1C1c2ccc(O)cc2Oc2cc(O)ccc21`, the figures for the AC50 in test [2] and in [9] were 3.98 µM (inconclusive) and 7.94 µM (inconclusive), respectively.

In the case of `Cc1ccc(C2CC(c3cccs3)=NN2C(=O)c2ccc(Br)o2)cc1` (configuration not stated), the EC50 in [5] is 34.1 µM (active); in test [6], 3.12 µM (active); in [8], > 150 µM (not active).
